# Data from US20110184017A1, “STABLE AQUEOUS SOLUTION COMPOSITION CONTAINING SULFONAMIDE COMPOUND” (ASAHI KASEI PHARMA CORPORATION, priority 2008, published 2011).
# Entries after “also recorded” stand apart in the source; their conditions may differ.
# Legend:
# Japanese white rabbits = test: Rabbit intraocular pressure reduction test; type: in vivo; details: FIG. 1
# Procedure: In order to examine difference in the intraocular pressure reducing effect depending on a different pH of (S)-1-(4-chloro-5-isoquinolinesulfonyl)-3-(methylamino)pyrrolidine solution, the following test was performed by using Japanese white rabbits as experimental animals.
# (S)-1-(4-Chloro-5-isoquinolinesulfonyl)-3-(methylamino)pyrrolidine hydrochloride obtained by the method described in International Patent Publication WO2007/026664 was dissolved in physiological saline, the solution was adjusted to pH 4, 5, 6, 7, 8 and 9 by adding sodium hydroxide, and the final concentration was adjusted to 0.5 mM. These solutions were used as (S)-1-(4-chloro-5-isoquinolinesulfonyl)-3-(methylamino)pyrrolidine solutions having different pH values.
# The rabbits used were sufficiently conditioned for ophathalmic tonometry test, and used as groups each consisting of 6 animals. After a Benoxil ophthalmic solution 0.4% (an ophthalmologic local anesthesant, Santen Pharmaceutical Co., Ltd.) was applied to both eyes of each rabbit, intraocular pressure value before instillation was measured (initial intraocular pressure value, both right and left eyes) by using an ophathalmic tonometer (Model 30 Classic, Solan). […] After 2, 4, and 6 hours from the instillation, each rabbit was topically anesthetized with the an ophthalmologic local anesthesant, and intraocular pressure values of the both eyes were measured. […]
# Photostability test = type: physicochemical; details: aqueous solution; estimated from similar absorption spectrum
# Procedure: In the following test, LT-120D3CJ (Nagano Science Co., Ltd.) was used as a photostability tester. Purity of (S)-1-(4-chloro-5-isoquinolinesulfonyl)-3-(methylamino)pyrrolidine in the samples of the examples and the comparative example was measured by the liquid chromatography method described in Test Example 2.
# The samples of Example 5 and Comparative Example 3 were subjected to light irradiation at 5,000 lux for ten days […] at 25° C. by using a D65 daylight fluorescent lamp installed in the photostability tester. As the photostability tester, an apparatus was used that was capable of uniformly irradiating the samples with light by turning a table. The illumination was 5,000 lux, and 1,200,000 lux·hr in total was irradiated over ten days. The accumulated near-ultraviolet energy during the photostability test was 474 to 488 W·h/m^2.
# 2) Purities of (S)-1-(4-chloro-5-isoquinolinesulfonyl)-3-(methylamino)pyrrolidine in the solutions of the light-irradiated samples were compared with that of a sample stored at 5° C. in a dark place.
photostability properties compared with the (methylamino)pyrrolidine compound (Photostability test),SMILES,"intraocular pressure reducing action (Japanese white rabbits; 0.5 mM solutions adjusted to pH 4, 5, 6, 7, 8 and 9, instillation to normal rabbits, 2, 4 and 6 hours)","intraocular pressure reducing action (Japanese white rabbits; 0.5 mM solutions at pH 7 to 9, instillation to rabbits)"
,CN[C@H]1CCN(S(=O)(=O)c2cccc3cncc(Cl)c23)C1 [(S)-1-(4-chloro-5-isoquinolinesulfonyl)-3-(methylamino)pyrrolidine],more strongly exhibited when a pH became higher in the range of pH 4 to 9; also recorded: became higher in a pH-dependent manner,strongly exhibited
similar,N[C@H]1CCN(S(=O)(=O)c2cccc3cncc(Cl)c23)C1 [(S)-1-(4-chloro-5-isoquinolinesulfonyl)-3-aminopyrrolidine],,
